Source: ChEMBL document CHEMBL5465560, “Selectivity Literature for EUbOPEN Chemogenomic Library” (2024)

How the values were obtained:
[1] = target: Homeodomain-interacting protein kinase 1 (Homo sapiens, UniProt Q86Z02); test: Selectivity interaction (KinomeScan (DiscoverX)) EUB0001079a HIPK1; conditions: at 1 µM
[2] = target: T1, Phosphatidylinositol 3-kinase C2 domain-containing subunit gamma (Homo sapiens) (UniProt O75747); test: Selectivity interaction (Adapta Assay) EUB0001632a PIK3C2G; conditions: at 10 µM
T1 sequence (whole entry): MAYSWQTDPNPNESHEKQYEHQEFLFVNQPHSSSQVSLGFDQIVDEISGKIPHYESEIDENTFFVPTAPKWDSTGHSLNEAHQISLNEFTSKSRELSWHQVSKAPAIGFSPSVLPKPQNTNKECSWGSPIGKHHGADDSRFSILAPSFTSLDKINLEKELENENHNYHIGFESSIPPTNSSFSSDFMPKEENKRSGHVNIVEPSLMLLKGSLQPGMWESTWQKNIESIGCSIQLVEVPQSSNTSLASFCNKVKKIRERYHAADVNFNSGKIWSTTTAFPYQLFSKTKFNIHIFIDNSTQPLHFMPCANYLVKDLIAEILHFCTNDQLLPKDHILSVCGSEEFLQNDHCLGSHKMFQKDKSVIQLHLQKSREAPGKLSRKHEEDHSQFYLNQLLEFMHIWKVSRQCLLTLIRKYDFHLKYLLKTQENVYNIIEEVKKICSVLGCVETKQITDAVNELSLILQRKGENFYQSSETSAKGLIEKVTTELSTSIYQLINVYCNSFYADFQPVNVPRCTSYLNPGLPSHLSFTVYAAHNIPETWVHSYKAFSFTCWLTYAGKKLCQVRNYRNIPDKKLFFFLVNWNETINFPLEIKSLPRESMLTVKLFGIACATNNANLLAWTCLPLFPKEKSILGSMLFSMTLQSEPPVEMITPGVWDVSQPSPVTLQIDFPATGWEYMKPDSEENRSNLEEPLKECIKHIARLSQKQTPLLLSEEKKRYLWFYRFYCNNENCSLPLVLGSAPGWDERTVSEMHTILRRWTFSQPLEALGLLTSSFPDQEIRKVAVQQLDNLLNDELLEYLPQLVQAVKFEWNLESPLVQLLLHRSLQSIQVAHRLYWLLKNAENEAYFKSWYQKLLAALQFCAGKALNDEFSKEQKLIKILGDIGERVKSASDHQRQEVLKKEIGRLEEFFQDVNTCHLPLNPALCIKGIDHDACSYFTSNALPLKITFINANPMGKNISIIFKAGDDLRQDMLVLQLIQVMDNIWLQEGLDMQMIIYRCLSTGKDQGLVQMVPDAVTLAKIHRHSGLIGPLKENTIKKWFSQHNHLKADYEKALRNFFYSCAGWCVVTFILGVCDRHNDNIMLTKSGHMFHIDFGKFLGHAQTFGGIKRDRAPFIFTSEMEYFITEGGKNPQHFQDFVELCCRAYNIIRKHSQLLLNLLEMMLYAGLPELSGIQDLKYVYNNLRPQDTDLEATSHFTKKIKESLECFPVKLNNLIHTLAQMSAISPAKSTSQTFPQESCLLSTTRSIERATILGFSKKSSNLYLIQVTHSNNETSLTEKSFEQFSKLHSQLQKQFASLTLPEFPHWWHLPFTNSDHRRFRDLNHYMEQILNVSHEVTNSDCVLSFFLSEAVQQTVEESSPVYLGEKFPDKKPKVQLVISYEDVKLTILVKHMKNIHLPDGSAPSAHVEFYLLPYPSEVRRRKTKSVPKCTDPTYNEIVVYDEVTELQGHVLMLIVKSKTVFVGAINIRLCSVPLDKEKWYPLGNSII

[3] = target: Serine/threonine-protein kinase Nek4 (Homo sapiens) (UniProt P51957); conditions: at 10 µM
[4] = target: Voltage-gated inwardly rectifying potassium channel KCNH2 (Homo sapiens, UniProt Q12809); test: Selectivity interaction (Panel of non-epigenetic targets (kinases, GPCRs, ion channels, and transporters, Eurofins) ) EUB0000271b KCNH2; conditions: at 1 µM
[5] = target: Serine/threonine-protein kinase MARK2 (Homo sapiens) (UniProt Q7KZI7); test: Selectivity interaction (Upstate Kinase Profiler service (Millipore)) EUB0000056c MARK2; conditions: at 1 µM
[6] = target: SRSF protein kinase 1 (Homo sapiens, UniProt Q96SB4); test: Selectivity interaction (ActivX KiNativ screen (kinase selectivity in THP-1 cell lysates)) EUB0000639a SRPK1; type: subcellular; conditions: lysate, at 0.04 µM
[7] = target: Calcium/calmodulin-dependent protein kinase type 1G (Homo sapiens) (UniProt Q96NX5); test: Selectivity interaction (KinomeScan (DiscoverX)) EUB0000655a CAMK1G; conditions: at 10 µM
[8] = target: T2, Tyrosine-protein kinase ZAP-70 (Homo sapiens) (UniProt P43403); test: Selectivity interaction (KinomeScan (DiscoverX)) EUB0000655a ZAP70; conditions: at 10 µM
T2 sequence (whole entry): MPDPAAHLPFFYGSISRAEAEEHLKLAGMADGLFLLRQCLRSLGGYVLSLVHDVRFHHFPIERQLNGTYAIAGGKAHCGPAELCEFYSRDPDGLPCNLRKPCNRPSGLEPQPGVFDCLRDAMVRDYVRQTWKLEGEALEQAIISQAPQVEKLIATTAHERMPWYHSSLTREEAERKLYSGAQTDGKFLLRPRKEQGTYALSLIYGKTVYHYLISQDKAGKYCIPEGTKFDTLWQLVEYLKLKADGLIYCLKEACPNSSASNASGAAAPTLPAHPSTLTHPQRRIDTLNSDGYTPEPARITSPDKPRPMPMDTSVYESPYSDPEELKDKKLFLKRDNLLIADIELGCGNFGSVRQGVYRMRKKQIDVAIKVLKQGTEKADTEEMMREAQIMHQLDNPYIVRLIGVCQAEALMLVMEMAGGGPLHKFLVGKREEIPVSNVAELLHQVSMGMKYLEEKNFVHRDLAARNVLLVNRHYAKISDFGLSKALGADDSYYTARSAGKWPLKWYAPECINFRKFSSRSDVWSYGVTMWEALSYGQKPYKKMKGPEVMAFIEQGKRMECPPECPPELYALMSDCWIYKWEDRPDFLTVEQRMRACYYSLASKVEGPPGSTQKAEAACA

[9] = target: Cyclin-dependent kinase 17 (Homo sapiens) (UniProt Q00537); conditions: at 10 µM
[10] = target: Macrophage colony-stimulating factor 1 receptor (Homo sapiens) (UniProt P07333); test: Selectivity interaction (Ambit KINOMEscan and KiNATiv profiling in Jurkat cells) EUB0000090b CSF1R; type: cell-based; conditions: at 1 µM
Macrophage colony-stimulating factor 1 receptor (Homo sapiens), sequence (P07333 whole entry): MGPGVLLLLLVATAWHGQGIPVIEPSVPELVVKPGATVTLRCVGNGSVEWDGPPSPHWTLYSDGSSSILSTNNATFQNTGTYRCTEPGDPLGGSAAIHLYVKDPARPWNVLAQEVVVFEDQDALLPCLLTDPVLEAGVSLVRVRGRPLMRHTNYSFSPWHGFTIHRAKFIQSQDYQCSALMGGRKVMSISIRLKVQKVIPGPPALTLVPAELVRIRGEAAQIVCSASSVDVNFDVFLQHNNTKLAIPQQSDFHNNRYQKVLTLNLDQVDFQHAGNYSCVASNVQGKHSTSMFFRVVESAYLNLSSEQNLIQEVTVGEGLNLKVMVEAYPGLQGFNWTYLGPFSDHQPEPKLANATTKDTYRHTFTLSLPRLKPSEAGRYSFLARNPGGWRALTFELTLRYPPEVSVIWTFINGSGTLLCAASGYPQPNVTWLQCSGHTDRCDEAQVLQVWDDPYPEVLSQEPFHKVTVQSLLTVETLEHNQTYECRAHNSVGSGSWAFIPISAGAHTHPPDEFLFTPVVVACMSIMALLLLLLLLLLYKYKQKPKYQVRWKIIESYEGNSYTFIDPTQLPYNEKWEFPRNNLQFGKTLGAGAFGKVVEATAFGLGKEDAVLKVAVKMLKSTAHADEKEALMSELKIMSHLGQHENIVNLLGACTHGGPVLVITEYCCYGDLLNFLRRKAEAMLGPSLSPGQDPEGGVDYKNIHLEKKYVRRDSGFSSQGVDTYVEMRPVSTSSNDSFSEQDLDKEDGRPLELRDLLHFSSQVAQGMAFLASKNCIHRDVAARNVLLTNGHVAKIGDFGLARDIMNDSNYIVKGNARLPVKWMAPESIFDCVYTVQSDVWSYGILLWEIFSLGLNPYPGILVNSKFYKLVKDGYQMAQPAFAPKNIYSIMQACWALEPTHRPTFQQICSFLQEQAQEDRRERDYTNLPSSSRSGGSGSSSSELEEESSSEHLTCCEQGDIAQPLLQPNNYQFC

Serine/threonine-protein kinase MARK2 (Homo sapiens), sequence (Q7KZI7 whole entry): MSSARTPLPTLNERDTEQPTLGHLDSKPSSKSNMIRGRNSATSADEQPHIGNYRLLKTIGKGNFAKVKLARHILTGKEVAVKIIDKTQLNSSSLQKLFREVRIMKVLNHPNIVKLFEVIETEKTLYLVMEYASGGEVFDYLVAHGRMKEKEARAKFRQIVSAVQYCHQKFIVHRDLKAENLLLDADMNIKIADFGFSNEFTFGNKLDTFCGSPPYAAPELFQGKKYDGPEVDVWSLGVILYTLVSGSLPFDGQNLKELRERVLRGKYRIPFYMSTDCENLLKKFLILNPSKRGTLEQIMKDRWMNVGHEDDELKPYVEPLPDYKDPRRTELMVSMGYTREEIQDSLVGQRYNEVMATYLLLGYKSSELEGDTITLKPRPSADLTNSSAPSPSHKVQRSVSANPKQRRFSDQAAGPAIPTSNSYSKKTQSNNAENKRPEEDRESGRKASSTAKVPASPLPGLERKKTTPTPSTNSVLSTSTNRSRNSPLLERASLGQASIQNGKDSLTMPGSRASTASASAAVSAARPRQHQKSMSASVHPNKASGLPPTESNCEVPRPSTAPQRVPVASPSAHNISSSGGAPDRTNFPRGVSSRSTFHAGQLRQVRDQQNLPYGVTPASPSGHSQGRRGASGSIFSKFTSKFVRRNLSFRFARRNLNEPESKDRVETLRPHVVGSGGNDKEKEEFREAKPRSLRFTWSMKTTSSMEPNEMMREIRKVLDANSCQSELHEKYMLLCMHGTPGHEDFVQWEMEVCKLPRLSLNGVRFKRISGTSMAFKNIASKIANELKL
Calcium/calmodulin-dependent protein kinase type 1G (Homo sapiens), sequence (Q96NX5 whole entry): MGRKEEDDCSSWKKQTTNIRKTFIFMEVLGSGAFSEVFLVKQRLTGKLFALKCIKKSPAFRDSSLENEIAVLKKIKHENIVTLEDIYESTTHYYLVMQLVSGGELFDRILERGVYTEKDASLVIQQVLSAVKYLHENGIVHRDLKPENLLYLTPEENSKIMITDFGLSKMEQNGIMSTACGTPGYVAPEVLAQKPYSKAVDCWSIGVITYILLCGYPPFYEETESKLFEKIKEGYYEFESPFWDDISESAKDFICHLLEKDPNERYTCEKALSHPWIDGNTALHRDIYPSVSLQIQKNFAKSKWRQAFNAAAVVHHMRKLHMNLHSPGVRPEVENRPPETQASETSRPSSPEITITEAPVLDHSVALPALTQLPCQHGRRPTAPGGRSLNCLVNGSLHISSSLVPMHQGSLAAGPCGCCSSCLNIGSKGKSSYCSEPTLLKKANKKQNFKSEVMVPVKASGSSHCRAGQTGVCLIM
Voltage-gated inwardly rectifying potassium channel KCNH2, sequence (Q12809 whole entry): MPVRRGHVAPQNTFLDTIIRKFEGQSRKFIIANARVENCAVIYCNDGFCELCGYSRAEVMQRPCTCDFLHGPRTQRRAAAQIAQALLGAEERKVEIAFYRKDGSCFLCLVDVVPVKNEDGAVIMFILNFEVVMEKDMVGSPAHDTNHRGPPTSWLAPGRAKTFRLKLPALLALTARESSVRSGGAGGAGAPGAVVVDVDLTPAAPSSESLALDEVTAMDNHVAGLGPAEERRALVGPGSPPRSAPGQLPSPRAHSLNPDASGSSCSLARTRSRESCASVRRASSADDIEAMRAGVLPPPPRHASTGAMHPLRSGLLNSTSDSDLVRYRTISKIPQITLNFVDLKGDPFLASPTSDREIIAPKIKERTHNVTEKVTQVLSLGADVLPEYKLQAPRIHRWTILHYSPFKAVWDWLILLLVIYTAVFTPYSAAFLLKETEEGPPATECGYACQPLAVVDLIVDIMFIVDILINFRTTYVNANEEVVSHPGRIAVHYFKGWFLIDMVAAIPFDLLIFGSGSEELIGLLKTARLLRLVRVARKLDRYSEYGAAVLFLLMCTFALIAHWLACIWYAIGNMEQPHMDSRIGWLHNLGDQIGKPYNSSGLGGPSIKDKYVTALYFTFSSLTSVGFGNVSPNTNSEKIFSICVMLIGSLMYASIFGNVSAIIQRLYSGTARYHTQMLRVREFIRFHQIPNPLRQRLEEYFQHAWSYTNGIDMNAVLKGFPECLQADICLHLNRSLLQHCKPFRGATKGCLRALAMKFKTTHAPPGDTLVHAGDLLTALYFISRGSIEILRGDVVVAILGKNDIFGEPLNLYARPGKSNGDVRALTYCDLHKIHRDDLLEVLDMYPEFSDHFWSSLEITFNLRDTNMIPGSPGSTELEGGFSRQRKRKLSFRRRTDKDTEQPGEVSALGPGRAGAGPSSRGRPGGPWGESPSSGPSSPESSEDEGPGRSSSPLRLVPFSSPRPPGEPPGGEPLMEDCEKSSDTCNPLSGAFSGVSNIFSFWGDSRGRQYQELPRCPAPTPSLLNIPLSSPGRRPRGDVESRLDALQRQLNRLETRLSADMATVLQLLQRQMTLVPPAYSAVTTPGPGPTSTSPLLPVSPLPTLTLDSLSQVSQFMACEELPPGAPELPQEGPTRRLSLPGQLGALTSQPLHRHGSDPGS
SRSF protein kinase 1, sequence (Q96SB4 whole entry): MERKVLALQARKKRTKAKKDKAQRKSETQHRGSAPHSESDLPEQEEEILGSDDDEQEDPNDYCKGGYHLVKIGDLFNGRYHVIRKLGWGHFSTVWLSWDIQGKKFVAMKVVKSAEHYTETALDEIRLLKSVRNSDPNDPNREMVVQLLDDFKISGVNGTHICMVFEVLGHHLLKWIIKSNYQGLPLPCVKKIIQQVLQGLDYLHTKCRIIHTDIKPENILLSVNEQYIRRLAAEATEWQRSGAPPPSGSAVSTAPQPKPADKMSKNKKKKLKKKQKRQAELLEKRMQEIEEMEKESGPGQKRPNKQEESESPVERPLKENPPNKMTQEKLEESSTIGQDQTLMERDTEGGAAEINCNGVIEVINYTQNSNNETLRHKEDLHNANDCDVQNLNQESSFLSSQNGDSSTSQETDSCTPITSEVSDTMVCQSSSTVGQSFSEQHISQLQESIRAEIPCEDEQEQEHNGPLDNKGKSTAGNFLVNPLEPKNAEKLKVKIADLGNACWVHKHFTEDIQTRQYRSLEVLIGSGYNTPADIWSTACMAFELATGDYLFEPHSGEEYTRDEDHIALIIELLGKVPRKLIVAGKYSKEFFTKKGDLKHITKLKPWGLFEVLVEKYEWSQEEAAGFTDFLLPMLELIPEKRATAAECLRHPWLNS
Cyclin-dependent kinase 17 (Homo sapiens), sequence (Q00537 whole entry, looked up): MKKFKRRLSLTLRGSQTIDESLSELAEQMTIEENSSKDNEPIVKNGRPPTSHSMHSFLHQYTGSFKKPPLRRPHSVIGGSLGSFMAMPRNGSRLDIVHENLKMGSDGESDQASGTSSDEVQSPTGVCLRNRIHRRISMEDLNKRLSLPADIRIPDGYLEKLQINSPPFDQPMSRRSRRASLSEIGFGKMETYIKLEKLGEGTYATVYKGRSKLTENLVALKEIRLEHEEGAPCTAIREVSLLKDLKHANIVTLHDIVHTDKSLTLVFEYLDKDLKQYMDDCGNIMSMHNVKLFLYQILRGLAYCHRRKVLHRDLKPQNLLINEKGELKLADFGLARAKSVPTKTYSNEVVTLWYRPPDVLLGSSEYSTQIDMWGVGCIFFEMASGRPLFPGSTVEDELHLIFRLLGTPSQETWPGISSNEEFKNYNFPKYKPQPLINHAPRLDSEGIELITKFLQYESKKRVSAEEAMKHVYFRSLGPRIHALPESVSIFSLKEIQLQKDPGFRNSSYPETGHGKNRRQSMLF

Nc1cnc(N2CCc3cc(S(=O)(=O)Nc4c(F)cc(Cl)cc4F)cc(N4CCCC4=O)c32)nc1 [TP-020n]
% of control [1]: 91%

Cn1cc(-n2cnc3c(NCc4nc5cc(Cl)c(Cl)cc5[nH]4)nc(N4CCOCC4)nc32)cn1
% of inhibition [2]: -0.366%

Cc1cc([C@@H](C)Nc2ccccc2C(=O)O)c2nc(N3CCOCC3)cc(=O)n2c1 [AZD-6482]
% of control [3]: 61%

Cc1cc(C)cc([C@@H]2c3cc(C)ccc3NC(=O)CN2C(=O)c2ccc(Br)s2)c1
% of inhibition [4]: 0%

Cc1ccc(-c2ccc3c(ccc4sc5c(c43)NC[C@@H](C)NC5=O)n2)cn1
% of inhibition [5]: 6%

CC[C@@H]1[C@H](F)C(=O)N[C@@H]1COc1nccc2cc(C(N)=O)c(OC)cc12 [ZIMLOVISERTIB]
% of inhibition [6]: 6%

CN(C)CCOc1ccc(-c2nc(-c3ccncc3)c(-c3ccc4c(c3)CC/C4=N\O)[nH]2)cc1
% of control [7]: 100%
% of control [8]: 100%

CCN(CC)CCCCNc1ncc2cc(-c3cc(OC)cc(OC)c3)c(NC(=O)NC(C)(C)C)nc2n1
% of control [9]: 100%

CN(C)C/C=C/C(=O)Nc1ccc(C(=O)N2CCCC(Nc3ncc(Cl)c(-c4c[nH]c5ccccc45)n3)C2)cc1 (stereo not given)
% of control [10]: 90%
